Measurements published in patent publication US20030224390A1, “Method of identifying conformation-sensitive binding peptides and uses thereof” (Karo Bio AB, priority 2000, published 2003).

Assays:
ERβ = ERβ (Homo sapiens, UniProt Q92731); test: Binding of the peptide probes to ERβ in the presence of modulators (Table 15b)
androgen receptor [1] = molecular target: T1, androgen receptor (Homo sapiens, UniProt P10275); type: cell-based; parameters: expressed in transfected cells
T1 sequence (P10275 1-920): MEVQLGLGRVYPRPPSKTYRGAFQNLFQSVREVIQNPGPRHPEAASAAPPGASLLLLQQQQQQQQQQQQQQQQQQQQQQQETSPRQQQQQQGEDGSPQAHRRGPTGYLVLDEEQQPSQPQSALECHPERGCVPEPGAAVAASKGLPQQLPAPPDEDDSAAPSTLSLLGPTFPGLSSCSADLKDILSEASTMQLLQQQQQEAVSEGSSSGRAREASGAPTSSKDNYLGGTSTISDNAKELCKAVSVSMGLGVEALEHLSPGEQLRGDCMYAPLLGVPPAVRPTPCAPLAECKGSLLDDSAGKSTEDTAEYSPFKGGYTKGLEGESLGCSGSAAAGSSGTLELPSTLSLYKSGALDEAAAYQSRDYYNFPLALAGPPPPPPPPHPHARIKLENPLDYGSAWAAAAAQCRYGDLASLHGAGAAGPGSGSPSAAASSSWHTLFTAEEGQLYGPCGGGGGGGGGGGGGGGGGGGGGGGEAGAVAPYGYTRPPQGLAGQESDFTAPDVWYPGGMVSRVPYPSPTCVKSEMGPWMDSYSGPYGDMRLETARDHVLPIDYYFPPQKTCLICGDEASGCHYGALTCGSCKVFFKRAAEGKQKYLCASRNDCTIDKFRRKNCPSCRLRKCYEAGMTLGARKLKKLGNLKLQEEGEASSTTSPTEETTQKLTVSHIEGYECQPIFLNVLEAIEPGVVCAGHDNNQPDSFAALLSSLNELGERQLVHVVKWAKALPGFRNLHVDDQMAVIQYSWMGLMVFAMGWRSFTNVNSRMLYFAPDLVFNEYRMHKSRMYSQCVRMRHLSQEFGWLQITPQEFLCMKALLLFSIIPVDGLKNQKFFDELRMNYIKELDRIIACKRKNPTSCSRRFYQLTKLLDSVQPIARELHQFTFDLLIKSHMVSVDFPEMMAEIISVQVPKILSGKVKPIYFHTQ
Description: We used a mammalian two-hybrid system to determine specificities of the AR-binding peptides previously identified, through screening of the aforementioned yeast library, as ligand-dependent in their binding activity. Ligand was provided to the cells so the interaction could be observed. The human hepatoma cell line, Huh-7, was used as the recipient of two-hybrid vectors, pM and pVP16 (Clontech) (FIGS. 6A and 6B), containing fusions with peptide and AR, respectively. According to Clontech literature, the Clontech vectors pM and VP16 generate fusions of protein X with the GAL4 DNA-BD and fusions of protein Y with the VP16AD, in the Mammalian MM Two-Hybrid Assay Kit (#K1602-1). (Note: pM and VP16 contain unique cloning sites in the same order and reading frame as the DNA-BD and AD, respectively, vectors in the yeast […] Two-Hybrid Systems.) A third vector, pG5CAT, provides a CAT reporter gene under the control of a GAL4-responsive element and minimal promoter of the adenovirus E1b. The three vectors are cotransfected into any suitable mammalian host cell line by standard methods. The interaction between proteins X and Y is then assayed by measuring CAT gene expression by any standard method. In the absence of activation (i.e., no protein-protein interaction), the minimal E1b promoter will not express significant levels of CAT.
Briefly, cells are seeded in a 24-well culture plate to a density of 50-80% confluence in phenol red-free media containing charcoal-dextran stripped fetal bovine serum (10%). Following incubation overnight, cells are transfected with plasmids pM-peptide, pVP16-AR, pCMV-b-gal, and p5XGAL-Luc3 DNAs using lipofectamine 2000 (LifeTech) according to the manufacturer's protocol. Transfections are allowed to proceed for 6 hours and the transfection media is aspirated and replaced with recovery media for 18 hours. Following the recovery period, cells are treated with compound for 24 hours prior to cell harvesting. Cells are washed with PBS and then lysed using the lysis buffer from the Galacto-Light Plus β-galactosidase assay kit (Tropix). Assays for luciferase and β-galactosidase were performed as described by the manufacturer. Peptide/AR interactions are described in terms of the luciferase activity normalized for transfection efficiency using β-galactosidase activity (see FIG. 4A). Two types of useful information arose from these methods: 1) we generated a panel of useful peptide probes to analyze the conformational state of AR, and 2) we “fingerprinted” AR modulators with respect to AR conformation (FIG. 4B). […] FIG. 4B is the converse of 4A. It compares the ability of six ligands (DHT, MPA, CYP, RU486, FLUT and DHEAs to interact with AR in the presence of each of four peptides (D30, 5G11, B8H3 and […]). Thus, it is a “fingerprint” of each of the six ligands using a four peptide panel. (Note that “1269” and D30” refer to the same peptide.)

androgen receptor [2] = molecular target: T1, androgen receptor; test: Yeast two-hybrid screening of unbiased X15 peptide library, ligand induced β-galactosidase activity (FIG. 3, Table 503); type: cell-based; parameters: expressed in transfected cells; host or cells: Saccharomyces cerevisiae PJ69-4α; ligand induced β-galactosidase activity, No Lig / ligand induced β-galactosidase activity, DHT / ligand induced β-galactosidase activity, CPA / ligand induced β-galactosidase activity, RU / ligand induced β-galactosidase activity, Test / ligand induced β-galactosidase activity, MPA: unit not given here; conditions: for ligand induced β-galactosidase activity, CPA / ligand induced β-galactosidase activity, DHT / ligand induced β-galactosidase activity, RU / ligand induced β-galactosidase activity, No Lig: yeast two-hybrid
Description: Our library contained predominantly 15 random amino acid residues/peptide in order to identify motifs that might interact with nuclear receptor domains. If ligand is provided to the cells, one can screen for peptides that interact with the ligand-bound receptor. […] Included at the ends of the oligonucleotide were the synthetic restriction endonuclease cleavage sites, EcoRI or Mfe I (5′ end) and Sal I (3′ end). Oligonucleotides were annealed, then cleaved with excess restriction endonuclease and purified on agarose gels. The purified set of oligonucleotides was subcloned as an in-frame carboxy-terminal fusion to a Gal4 DNA binding domain (plasmid vector pMA424 derivative). […] The transformation mix was divided and grown on plates of selective media containing ligand and 25 mM 3-aminotriazole at 30° C. until colonies appeared in 3-7 days. […] Dihydrotestosterone (DHT) and medroxyprogesterone (MPA) were added to the media at 100 nM to identify peptides that interact with the receptor in the presence of ligand. After colonies appeared they were picked and dispersed into individual wells of a 96-well plate containing rich media (YPD).
To determine ligand dependence, two microliter aliquots were removed from the cell suspension, and arrayed and spotted onto each of two rectangular agar plates, one with 100 nM ligand and one without ligand. Growth was monitored daily.
A secondary test of ligand dependent activation was performed using the integrated GAL4-driven lacZ gene. Cell suspensions of the initial positive clones were diluted 20-fold into 20 microliters of rich media in a microplate and grown overnight at 30° C. in the presence and absence of ligand. Microplates were centrifuged for 5 minutes at 3000 rpm in a swinging table top centrifuge to pellet the yeast cells, and the overlying media was aspirated. […] An OD650 density determination was made to normalize the β-galactosidase activity. β-galactosidase activity was monitored following the addition of buffer containing chlorophenol red-β-galactopyranoside (CPRG) (Boehringer Mannheim) substrate at a final concentration of 0.5 mM. […] The maximum slope value of this measurement was normalized to cell density from the initial OD650 value, and the relative ligand dependence of β-galactosidase was determined by comparing the values plus and minus ligand.
In FIG. 3, all of these ligands were tested. The plasmids from true positives were extracted using standard yeast extraction protocols and re-transformed to verify the positive phenotype.

Sequence of ERβ (Q92731 whole entry, species assumed): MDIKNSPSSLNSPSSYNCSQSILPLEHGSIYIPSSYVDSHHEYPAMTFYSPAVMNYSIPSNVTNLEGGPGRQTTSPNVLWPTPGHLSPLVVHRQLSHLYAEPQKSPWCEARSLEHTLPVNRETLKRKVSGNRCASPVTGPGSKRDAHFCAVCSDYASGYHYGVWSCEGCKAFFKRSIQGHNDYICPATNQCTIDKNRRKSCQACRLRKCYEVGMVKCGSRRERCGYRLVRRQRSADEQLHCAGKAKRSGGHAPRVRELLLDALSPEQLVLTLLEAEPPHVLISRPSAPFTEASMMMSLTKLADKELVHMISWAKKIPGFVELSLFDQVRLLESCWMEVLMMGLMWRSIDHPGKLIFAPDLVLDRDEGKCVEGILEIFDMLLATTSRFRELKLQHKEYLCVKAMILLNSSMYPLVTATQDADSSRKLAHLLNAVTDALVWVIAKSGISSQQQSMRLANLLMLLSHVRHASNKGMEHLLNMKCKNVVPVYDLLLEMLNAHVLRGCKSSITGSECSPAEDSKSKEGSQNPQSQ

| Equiv. (equivalency), peptide probe α/βIII on ERβ (ERβ) | Equiv. (equivalency), peptide probe α/βIV on ERβ (ERβ) | Equiv. (equivalency), peptide probe α/βV on ERβ (ERβ) | Equiv. (equivalency), peptide probe βI on ERβ (ERβ) | Equiv. (equivalency), peptide probe βIII on ERβ (ERβ) | Equiv. (equivalency), peptide probe α/βI on ERβ (ERβ; probe α/βI, positive: % of maximum stimulation by the modulator used to isolate the probe, negative: % of reduction by ICI 182,780) | luciferase normalized to β-galactosidase, CYP. (androgen receptor [1]) | luciferase normalized to β-galactosidase, DHT (androgen receptor [1]; mammalian two-hybrid, Huh-7 cells, ligand DHT) | luciferase normalized to β-galactosidase, MPA (androgen receptor [1]; mammalian two-hybrid, Huh-7 cells, ligand MPA) | luciferase normalized to β-galactosidase, RU486 (androgen receptor [1]; mammalian two-hybrid, Huh-7 cells, ligand RU486) | luciferase normalized to β-galactosidase, no compound (androgen receptor [1]; mammalian two-hybrid, Huh-7 cells, no compound) | Fold induction (androgen receptor [2]; untitled table before Table 503, values match DHT / No Lig of Table 503) | ligand induced β-galactosidase activity, CPA (androgen receptor [2]) | ligand induced β-galactosidase activity, DHT (androgen receptor [2]) | ligand induced β-galactosidase activity, RU (androgen receptor [2]) | ligand induced β-galactosidase activity, No Lig (androgen receptor [2]) | Compound |
| --- | --- | --- | --- | --- | --- | --- | --- | --- | --- | --- | --- | --- | --- | --- | --- | --- |
|  |  |  |  |  |  | 10.47 | 11.6 | 11.33 | 3.879 | 0.1316 | 22 | 0.3927 | 3.807 | −0.0 | 0.1737 | EFHSRLRVEVVSWGIGSTCSQANSGRISYDL* [B8H3] |
|  |  |  |  |  |  |  |  |  |  |  |  | 0.2919 | 1.719 | 0.5 | 0.3711 | EFPELLAMTRWGRHAALLEPQRLPPPRTTTQPQTEFERMFFFTRPMRTTGLLDLQPS [B2A7] |

Continued, compound first:

| Compound | Equiv. (equivalency), peptide probe α/βIII on ERβ (ERβ) | Equiv. (equivalency), peptide probe α/βIV on ERβ (ERβ) | Equiv. (equivalency), peptide probe α/βV on ERβ (ERβ) | Equiv. (equivalency), peptide probe βI on ERβ (ERβ) | Equiv. (equivalency), peptide probe βIII on ERβ (ERβ) | Equiv. (equivalency), peptide probe α/βI on ERβ (ERβ; probe α/βI, positive: % of maximum stimulation by the modulator used to isolate the probe, negative: % of reduction by ICI 182,780) | luciferase normalized to β-galactosidase, CYP. (androgen receptor [1]) | luciferase normalized to β-galactosidase, DHT (androgen receptor [1]; mammalian two-hybrid, Huh-7 cells, ligand DHT) | luciferase normalized to β-galactosidase, MPA (androgen receptor [1]; mammalian two-hybrid, Huh-7 cells, ligand MPA) | luciferase normalized to β-galactosidase, RU486 (androgen receptor [1]; mammalian two-hybrid, Huh-7 cells, ligand RU486) | luciferase normalized to β-galactosidase, no compound (androgen receptor [1]; mammalian two-hybrid, Huh-7 cells, no compound) | Fold induction (androgen receptor [2]; untitled table before Table 503, values match DHT / No Lig of Table 503) | ligand induced β-galactosidase activity, CPA (androgen receptor [2]) | ligand induced β-galactosidase activity, DHT (androgen receptor [2]) | ligand induced β-galactosidase activity, RU (androgen receptor [2]) | ligand induced β-galactosidase activity, No Lig (androgen receptor [2]) |
| --- | --- | --- | --- | --- | --- | --- | --- | --- | --- | --- | --- | --- | --- | --- | --- | --- |
| CCN(CC)CCOc1ccc(C(=C(Cl)c2ccccc2)c2ccccc2)cc1 [Clomiphene] | 34% | 0% | 13% | −62% | −61% |  |  |  |  |  |  |  |  |  |  |  |
| C[C@]12CC[C@@H]3c4ccc(O)cc4CC[C@H]3[C@@H]1C[C@@H](O)[C@@H]2O [Estriol] | −57% | −75% | 0% | −96% | 77% | 81% |  |  |  |  |  |  |  |  |  |  |
| O=C(c1ccc(OCCN2CCCCC2)cc1)c1c(-c2ccc(O)cc2)sc2cc(O)ccc12 [Raloxifene] | 77% | 0% | 0% | −53% | −71% |  |  |  |  |  |  |  |  |  |  |  |
